Reference: ChEMBL document CHEMBL4190187, “Discovery of pyrazolopyrimidine derivatives as novel inhibitors of ataxia telangiectasia and rad3 related protein (ATR)” (Bioorg Med Chem Lett, 2017)

Key:
[1] = target: Tyrosine-protein kinase Lck (Homo sapiens) (UniProt P06239); experiment: Inhibition of recombinant full-length human Lck at 1 uM using KVEKIGEGTYGVVYK (Cdc2 peptide) as substrate after 40 mins in presence of [gamma-33P]ATP by scintillation counting method
[2] = target: G protein-coupled receptor kinase 3 (Homo sapiens) (UniProt P35626); experiment: Inhibition of recombinant full-length human GRK3 at 1 uM using casein as substrate after 40 mins in presence of [gamma-33P]ATP by scintillation counting method
[3] = target: Serine/threonine-protein kinase 26 (Homo sapiens) (UniProt Q9P289); experiment: Inhibition of recombinant human MST4 (4 to 304 residues) at 1 uM using RLGRDKYKTLRQIRQ as substrate after 40 mins in presence of [gamma-33P]ATP by scintillation counting method
[4] = target: Wee1-like protein kinase 2 (Homo sapiens) (UniProt P0C1S8); experiment: Inhibition of recombinant full-length human Wee1B at 1 uM using LSNLYHQGKFLQTFCGSPLYRRR as substrate after 120 mins in presence of [gamma-33P]ATP by scintillation counting method
[5] = target: Serine/threonine-protein kinase PLK2 (Homo sapiens) (UniProt Q9NYY3); experiment: Inhibition of recombinant human Snk (65 to 409 residues) at 1 uM using casein as substrate after 40 mins in presence of [gamma-33P]ATP by scintillation counting method
[6] = test system: Tyrosine-protein kinase ABL1 (Homo sapiens), P00519 [M351T]; experiment: Inhibition of recombinant human Abl M351T mutant (27 to end residues) at 1 uM using EAIYAAPFAKKK as substrate after 40 mins in presence of [gamma-33P]ATP by scintillation counting method
[7] = target: Receptor tyrosine-protein kinase erbB-2 (Homo sapiens) (UniProt P04626); experiment: Inhibition of recombinant human ErbB2 (676 to end residues) at 1 uM using poly(Glu,Tyr) 4:1 as substrate after 40 mins in presence of [gamma-33P]ATP by scintillation counting method
[8] = target: Insulin receptor (Homo sapiens) (UniProt P06213); experiment: Inhibition of recombinant human IR (1005 to 1310 residues) at 1 uM using KKSRGDYMTMQIG as substrate after 40 mins in presence of [gamma-33P]ATP by scintillation counting method
[9] = target: Serine/threonine-protein kinase MAK (Homo sapiens) (UniProt P20794); experiment: Inhibition of recombinant full-length human MAK at 1 uM using RRRFRPASPLRGPPK as substrate after 120 mins in presence of [gamma-33P]ATP by scintillation counting method
[10] = target: CDK4/Cyclin D3 (Homo sapiens) (UniProt P11802+P30281); experiment: Inhibition of recombinant full-length human CDK4/Cyclin D3 at 1 uM using Rb fragment as substrate after 40 mins in presence of [gamma-33P]ATP by scintillation counting method; type: protein-complex assay
[11] = target: PI3K p110 beta/p85 beta (Mus musculus) (UniProt Q8BTI9+O08908); experiment: Inhibition of recombinant full-length mouse p110b/p85b at 1 uM using phosphatidylinositol 4,5-bisphosphate as substrate after 40 mins in presence of [gamma-33P]ATP by scintillation counting method; type: protein-complex assay
[12] = test system: Hepatocyte growth factor receptor (Homo sapiens), P08581 [M1268T]; experiment: Inhibition of recombinant human Met M1268T mutant (974 to end residues) at 1 uM using KKKGQEEEYVFIE as substrate after 40 mins in presence of [gamma-33P]ATP by scintillation counting method
[13] = target: Protein kinase C beta type (Homo sapiens) (UniProt P05771); experiment: Inhibition of recombinant human PKCbeta1 (2 to end residues) at 1 uM using histone H1 as substrate after 40 mins in presence of [gamma-33P]ATP by scintillation counting method
[14] = target: Homeodomain-interacting protein kinase 1 (Homo sapiens) (UniProt Q86Z02); experiment: Inhibition of recombinant human HIPK1 (158 to 555 residues) at 1 uM using myelin basic protein as substrate after 40 mins in presence of [gamma-33P]ATP by scintillation counting method
[15] = target: Fibroblast growth factor receptor 4 (Homo sapiens) (UniProt P22455); experiment: Inhibition of recombinant human FGFR4 (442 to 755 residues) at 1 uM using poly(Glu,Tyr) 4:1 as substrate after 40 mins in presence of [gamma-33P]ATP by scintillation counting method
[16] = target: PI3K p110 alpha/p85 alpha (Mus musculus) (UniProt P26450+P42337); experiment: Inhibition of recombinant full-length mouse p110a E545K mutant/p85a at 1 uM using phosphatidylinositol 4,5-bisphosphate as substrate after 40 mins in presence of [gamma-33P]ATP by scintillation counting method; type: protein-complex assay
[17] = target: Proto-oncogene tyrosine-protein kinase Src (Homo sapiens) (UniProt P12931); experiment: Inhibition of recombinant full-length human cSRC at 1 uM using KVEKIGEGTYGVVYK (Cdc2 peptide) as substrate after 40 mins in presence of [gamma-33P]ATP by scintillation counting method
[18] = target: PAS domain-containing serine/threonine-protein kinase (Homo sapiens) (UniProt Q96RG2); experiment: Inhibition of recombinant human PASK (995 to end residues) at 1 uM using KKLNRTLSFAEPG as substrate after 40 mins in presence of [gamma-33P]ATP by scintillation counting method
[19] = test system: Epidermal growth factor receptor (Homo sapiens), P00533 [L858R,T790M]; experiment: Inhibition of recombinant human EGFR T790M/L858R double mutant (696 to end residues) at 1 uM using GGMEDIYFEFMGGKKK as substrate after 40 mins in presence of [gamma-33P]ATP by scintillation counting method
[20] = target: Tyrosine-protein kinase Fes/Fps (Homo sapiens) (UniProt P07332); experiment: Inhibition of recombinant human FES (2 to end residues) at 1 uM using poly(Glu,Tyr) 4:1 as substrate after 40 mins in presence of [gamma-33P]ATP by scintillation counting method
[21] = test system: Hepatocyte growth factor receptor (Homo sapiens), P08581 [D1246H]; experiment: Inhibition of recombinant human Met D1246H mutant (974 to end residues) at 1 uM using KKKGQEEEYVFIE as substrate after 40 mins in presence of [gamma-33P]ATP by scintillation counting method
[22] = target: Inhibitor of nuclear factor kappa-B kinase subunit beta (Homo sapiens) (UniProt O14920); experiment: Inhibition of recombinant full-length human IKKbeta at 1 uM using peptide as substrate after 40 mins in presence of [gamma-33P]ATP by scintillation counting method
[23] = target: Mitogen-activated protein kinase 14 (Homo sapiens) (UniProt Q16539); experiment: Inhibition of recombinant full-length human SAPK2a at 1 uM using myelin basic protein as substrate after 40 mins in presence of [gamma-33P]ATP by scintillation counting method

Sequence of Receptor tyrosine-protein kinase erbB-2 (Homo sapiens) (P04626 whole entry, the tested form may be a part): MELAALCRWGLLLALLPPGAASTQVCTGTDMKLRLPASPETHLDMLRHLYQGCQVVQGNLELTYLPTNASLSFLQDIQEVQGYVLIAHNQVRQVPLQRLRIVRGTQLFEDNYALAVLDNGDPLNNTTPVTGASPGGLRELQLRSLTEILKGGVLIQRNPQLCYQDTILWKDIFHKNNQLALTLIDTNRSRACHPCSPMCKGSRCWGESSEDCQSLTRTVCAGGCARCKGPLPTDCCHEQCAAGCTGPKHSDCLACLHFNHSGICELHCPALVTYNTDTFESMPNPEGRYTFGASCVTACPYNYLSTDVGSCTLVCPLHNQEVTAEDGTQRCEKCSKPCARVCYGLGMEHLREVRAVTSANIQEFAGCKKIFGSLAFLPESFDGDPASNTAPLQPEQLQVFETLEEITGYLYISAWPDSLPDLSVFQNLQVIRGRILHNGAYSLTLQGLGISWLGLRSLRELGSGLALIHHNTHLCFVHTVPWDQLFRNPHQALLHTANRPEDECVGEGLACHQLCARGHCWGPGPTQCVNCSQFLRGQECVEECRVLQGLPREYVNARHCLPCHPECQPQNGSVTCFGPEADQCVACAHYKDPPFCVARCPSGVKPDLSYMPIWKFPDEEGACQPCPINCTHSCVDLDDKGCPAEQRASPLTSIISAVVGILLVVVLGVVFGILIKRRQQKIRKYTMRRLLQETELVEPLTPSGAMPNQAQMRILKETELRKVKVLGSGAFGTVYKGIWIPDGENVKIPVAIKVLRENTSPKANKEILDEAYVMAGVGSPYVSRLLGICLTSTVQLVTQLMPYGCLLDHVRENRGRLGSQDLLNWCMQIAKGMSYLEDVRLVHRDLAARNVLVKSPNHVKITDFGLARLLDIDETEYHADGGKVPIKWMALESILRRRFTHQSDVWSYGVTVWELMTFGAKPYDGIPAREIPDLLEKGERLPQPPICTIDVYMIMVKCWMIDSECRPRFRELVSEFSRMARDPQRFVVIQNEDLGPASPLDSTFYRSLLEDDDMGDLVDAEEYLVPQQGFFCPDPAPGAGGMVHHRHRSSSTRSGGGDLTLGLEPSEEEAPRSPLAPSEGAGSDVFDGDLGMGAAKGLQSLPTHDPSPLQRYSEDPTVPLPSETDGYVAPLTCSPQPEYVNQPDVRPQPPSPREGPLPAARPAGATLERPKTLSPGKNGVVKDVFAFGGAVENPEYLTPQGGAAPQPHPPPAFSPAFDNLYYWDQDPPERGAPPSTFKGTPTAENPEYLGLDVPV
Sequence of PAS domain-containing serine/threonine-protein kinase (Homo sapiens) (Q96RG2 whole entry, the tested form may be a part): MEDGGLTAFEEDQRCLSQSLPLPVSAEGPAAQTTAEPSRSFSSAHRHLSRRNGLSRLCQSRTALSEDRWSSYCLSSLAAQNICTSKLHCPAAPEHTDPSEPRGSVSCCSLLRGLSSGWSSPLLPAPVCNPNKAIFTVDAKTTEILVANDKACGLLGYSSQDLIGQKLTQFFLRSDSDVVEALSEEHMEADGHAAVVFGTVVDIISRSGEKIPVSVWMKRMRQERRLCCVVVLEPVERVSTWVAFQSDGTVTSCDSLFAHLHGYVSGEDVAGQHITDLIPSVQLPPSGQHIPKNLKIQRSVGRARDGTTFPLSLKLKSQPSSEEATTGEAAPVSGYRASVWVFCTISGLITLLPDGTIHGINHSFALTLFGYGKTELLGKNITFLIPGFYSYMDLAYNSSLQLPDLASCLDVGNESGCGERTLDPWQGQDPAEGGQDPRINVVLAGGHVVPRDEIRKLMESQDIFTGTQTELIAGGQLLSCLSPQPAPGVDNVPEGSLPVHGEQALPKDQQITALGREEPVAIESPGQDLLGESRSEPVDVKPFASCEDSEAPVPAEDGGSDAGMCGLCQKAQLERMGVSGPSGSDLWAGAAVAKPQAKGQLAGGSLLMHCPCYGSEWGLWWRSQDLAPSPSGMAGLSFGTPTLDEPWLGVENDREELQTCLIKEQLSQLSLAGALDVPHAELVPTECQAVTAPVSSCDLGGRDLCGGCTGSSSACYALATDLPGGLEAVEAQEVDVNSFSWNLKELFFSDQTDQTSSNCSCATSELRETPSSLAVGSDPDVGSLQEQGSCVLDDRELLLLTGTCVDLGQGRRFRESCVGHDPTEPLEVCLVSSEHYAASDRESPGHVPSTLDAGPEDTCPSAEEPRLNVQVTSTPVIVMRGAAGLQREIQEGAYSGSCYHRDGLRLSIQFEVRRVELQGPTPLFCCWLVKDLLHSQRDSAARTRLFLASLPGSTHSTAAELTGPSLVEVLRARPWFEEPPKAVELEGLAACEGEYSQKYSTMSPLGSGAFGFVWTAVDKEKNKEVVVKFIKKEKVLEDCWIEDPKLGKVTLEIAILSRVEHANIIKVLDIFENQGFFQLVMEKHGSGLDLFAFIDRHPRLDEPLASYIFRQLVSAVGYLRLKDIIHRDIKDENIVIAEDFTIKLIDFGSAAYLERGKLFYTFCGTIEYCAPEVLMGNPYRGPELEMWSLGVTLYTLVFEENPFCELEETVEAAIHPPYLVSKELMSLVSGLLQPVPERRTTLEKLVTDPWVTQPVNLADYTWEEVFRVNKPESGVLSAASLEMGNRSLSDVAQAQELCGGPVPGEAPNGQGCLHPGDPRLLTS
Sequence of Serine/threonine-protein kinase PLK2 (Homo sapiens) (Q9NYY3 whole entry, looked up, the tested form may be a part): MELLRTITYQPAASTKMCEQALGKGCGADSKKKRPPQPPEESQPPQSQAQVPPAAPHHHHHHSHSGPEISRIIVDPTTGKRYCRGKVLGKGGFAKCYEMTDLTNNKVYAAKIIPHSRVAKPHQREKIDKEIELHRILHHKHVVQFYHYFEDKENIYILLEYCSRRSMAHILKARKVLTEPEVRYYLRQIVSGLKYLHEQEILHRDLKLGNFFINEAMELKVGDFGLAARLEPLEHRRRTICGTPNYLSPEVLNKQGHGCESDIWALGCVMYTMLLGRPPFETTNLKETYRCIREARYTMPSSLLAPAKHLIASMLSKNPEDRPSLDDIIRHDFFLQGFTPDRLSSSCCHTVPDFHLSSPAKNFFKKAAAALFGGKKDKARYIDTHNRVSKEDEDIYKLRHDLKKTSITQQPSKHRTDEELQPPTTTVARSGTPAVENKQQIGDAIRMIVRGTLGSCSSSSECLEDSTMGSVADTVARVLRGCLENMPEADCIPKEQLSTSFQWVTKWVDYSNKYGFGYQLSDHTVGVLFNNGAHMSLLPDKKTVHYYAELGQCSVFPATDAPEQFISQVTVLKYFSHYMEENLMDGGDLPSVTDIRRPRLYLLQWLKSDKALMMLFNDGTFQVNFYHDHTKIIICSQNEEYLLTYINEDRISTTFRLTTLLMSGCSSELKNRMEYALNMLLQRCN
Sequence of Hepatocyte growth factor receptor (Homo sapiens), P08581 [D1246H] (P08581 with tags, fused parts or gaps D1246H): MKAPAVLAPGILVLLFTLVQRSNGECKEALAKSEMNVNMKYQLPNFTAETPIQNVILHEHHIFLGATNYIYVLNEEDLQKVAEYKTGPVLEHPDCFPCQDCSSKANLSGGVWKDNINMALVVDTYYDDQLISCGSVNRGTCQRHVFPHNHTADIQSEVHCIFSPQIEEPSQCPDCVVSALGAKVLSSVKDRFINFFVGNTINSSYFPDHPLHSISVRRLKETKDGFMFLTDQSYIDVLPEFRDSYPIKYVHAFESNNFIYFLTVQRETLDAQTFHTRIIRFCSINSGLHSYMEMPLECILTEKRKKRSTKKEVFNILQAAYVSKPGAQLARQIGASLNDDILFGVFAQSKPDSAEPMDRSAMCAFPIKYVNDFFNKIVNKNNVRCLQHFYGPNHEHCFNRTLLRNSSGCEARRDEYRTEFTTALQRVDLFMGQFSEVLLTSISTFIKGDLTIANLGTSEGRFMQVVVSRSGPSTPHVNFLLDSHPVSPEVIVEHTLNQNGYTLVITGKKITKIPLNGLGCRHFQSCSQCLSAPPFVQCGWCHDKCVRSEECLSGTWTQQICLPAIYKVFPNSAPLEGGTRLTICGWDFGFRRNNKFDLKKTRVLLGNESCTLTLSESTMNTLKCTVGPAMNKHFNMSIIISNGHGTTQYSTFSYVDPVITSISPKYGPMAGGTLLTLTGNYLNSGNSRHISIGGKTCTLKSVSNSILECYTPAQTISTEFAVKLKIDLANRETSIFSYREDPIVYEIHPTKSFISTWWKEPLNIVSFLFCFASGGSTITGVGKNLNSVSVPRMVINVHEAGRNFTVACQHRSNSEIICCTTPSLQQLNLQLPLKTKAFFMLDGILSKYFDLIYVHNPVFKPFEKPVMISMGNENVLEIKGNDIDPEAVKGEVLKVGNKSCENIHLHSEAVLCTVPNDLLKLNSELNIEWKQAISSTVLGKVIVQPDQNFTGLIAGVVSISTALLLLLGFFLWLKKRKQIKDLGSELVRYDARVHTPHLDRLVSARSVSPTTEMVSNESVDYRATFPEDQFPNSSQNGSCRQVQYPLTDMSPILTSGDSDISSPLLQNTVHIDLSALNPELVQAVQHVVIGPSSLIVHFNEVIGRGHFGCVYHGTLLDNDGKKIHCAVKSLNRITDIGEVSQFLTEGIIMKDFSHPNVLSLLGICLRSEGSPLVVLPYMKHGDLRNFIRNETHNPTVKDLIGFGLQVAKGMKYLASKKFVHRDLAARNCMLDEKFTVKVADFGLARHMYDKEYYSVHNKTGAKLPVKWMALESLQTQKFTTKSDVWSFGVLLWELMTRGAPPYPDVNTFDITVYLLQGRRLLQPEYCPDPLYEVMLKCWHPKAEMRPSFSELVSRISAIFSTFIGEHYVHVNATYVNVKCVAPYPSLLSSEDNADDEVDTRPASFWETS
Sequence of Serine/threonine-protein kinase 26 (Homo sapiens) (Q9P289 2-416 limits assumed): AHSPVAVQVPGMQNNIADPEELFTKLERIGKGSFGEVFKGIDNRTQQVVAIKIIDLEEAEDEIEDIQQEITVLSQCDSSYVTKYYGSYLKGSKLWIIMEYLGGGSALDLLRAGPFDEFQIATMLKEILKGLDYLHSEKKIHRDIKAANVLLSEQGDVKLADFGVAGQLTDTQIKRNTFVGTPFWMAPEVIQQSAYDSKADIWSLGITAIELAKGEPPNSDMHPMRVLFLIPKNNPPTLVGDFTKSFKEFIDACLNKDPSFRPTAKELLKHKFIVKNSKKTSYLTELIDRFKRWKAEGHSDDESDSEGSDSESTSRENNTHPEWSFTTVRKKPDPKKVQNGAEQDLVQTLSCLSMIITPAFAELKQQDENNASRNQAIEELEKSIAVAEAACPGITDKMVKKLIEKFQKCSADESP

Work on `CS(=O)(=O)c1ccc(-n2nc(-c3cnc4[nH]ccc4c3)c3c(N)ncnc32)cc1` yielded an inhibition [1] of 55%, an inhibition [2] of 1% and an inhibition [3] of -3%. The inhibition [4] was -3%, the inhibition [5] was -6% and the inhibition [6] was 77%. The inhibition [7] was 6%, the inhibition [8] was -7% and the inhibition [9] was 2%. It also gave an inhibition [10] of -9%, an inhibition [11] of 1% and an inhibition [12] of -2%. The inhibition [13] was 6%, the inhibition [14] was -2% and the inhibition [15] was 3%. It also gave an inhibition [16] of 11%, an inhibition [17] of 53% and an inhibition [18] of -6%. It also gave an inhibition [19] of 27%, an inhibition [20] of -5% and an inhibition [21] of 1%. For the same compound, the inhibition [22] was -3% and the inhibition [23] was -5%.
